A short description of the series: method code SF-AS, from DOI: 10.1016/0223-5234(96)88212-2. The conditions noted are these: pH 7.4.

The record followed here is the SangsterLogP compilation.

In general, logD refers to the decadic logarithm of the distribution of all forms, ionised or not, between an organic phase and buffer at a given pH. Lower therefore signals lower lipophilicity. In turn, `Clc1ccccc1N1CCN(CCCOn2nnc3ccccc32)CC1` had a logD of 3.6.

As to `Clc1ccccc1N1CCN(CCn2nnc3ccccc32)CC1`, the log distribution coefficient (logD) came out at 3.35.
